Drawing on PubChem BioAssay (NCI), this text covers GI50 and TGI for 17 molecules.

Structures are written as SMILES.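 These data come from cells grown in 96-well plates and exposed to compound for 48 hours at five concentrations. GI50 is the concentration that inhibits growth by half. The concentration for full growth arrest is given as TGI.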

Holding throughout (test): NCI anticancer screen, dose series, 48 h
Experiment [1] has as its system HT29 colon.
Experiment [2] deals with KM12 colon.
Experiment [3] has as its system MALME-3M melanoma.
The subject of experiment [4] is MCF7 breast.
Experiment [5] has as its system OVCAR-5 ovarian.
For experiment [6], the system named is RXF 393 renal.
The subject of experiment [7] is SF-268 CNS.
For experiment [8], the system named is SNB-75 CNS.
Experiment [9] relates to TK-10 renal.
The subject of experiment [10] is U251 CNS.

Turning to `c1cncc(C2Nc3cccc4cccc(c34)N2)c1`, the GI50 is 31.8 µM in experiment [1]; 30.8 µM in [2]; 25.6 µM in experiment [3]; 18.7 µM in [4]; 88.7 µM in [5]; 16.8 µM in [6]. Moreover, the GI50 was 33.8 µM in experiment [7], 17.9 µM in experiment [8], 26.8 µM in [9] and 21.9 µM in experiment [10]. For the same molecule, the TGI in [1] is more than 100 µM; in experiment [2], 97.7 µM; in experiment [3], 57.7 µM; in experiment [4], 60.6 µM; in experiment [5], more than 100 µM; in [6], 33 µM. Also, the TGI in [7] is more than 100 µM; in [8], more than 100 µM; in experiment [9], 73.6 µM; in experiment [10], 54 µM.

With `Cc1ccc(C2=C(c3ccc(C)cc3)C3(c4ccc(C)cc4)C4C(=O)c5ccccc5C(=O)C4C2(c2ccc(C)cc2)S3=O)cc1` (stereo not given), the GI50 in experiment [1] is more than 100 µM; in [2], more than 100 µM; in [3], more than 100 µM; in experiment [4] it was more than 100 µM; in experiment [5], more than 100 µM; in [6], 94.4 µM. The GI50 in experiment [7] is more than 100 µM; in experiment [8], 9.93 µM; in experiment [9], more than 100 µM; in experiment [10] it was 63 µM. The TGI in [1], in experiment [2], in experiment [3], in [4], in [5] and in experiment [6] was more than 100 µM in each case. Further, the TGI in experiment [7] is more than 100 µM; in experiment [8], 31 µM; in [9], more than 100 µM; in experiment [10] it was more than 100 µM.

In the case of `COC(=O)/C=C1/SC(N2N=C(c3cccs3)CC2c2ccc(F)cc2)=NC1=O` (stereo not given), the GI50 in [1] is 2.28 µM; in [2], 1.92 µM; in experiment [3], 2.44 µM; in experiment [4], 2.34 µM; in experiment [5], 2.46 µM; in experiment [6] it was 1.73 µM. The GI50 was 2.95 µM in experiment [7], 1.64 µM in [8], 2.6 µM in experiment [9] and 1.89 µM in experiment [10]. Further, the TGI stood at 4.54 µM in experiment [1]; 3.78 µM in [2]; 8.51 µM in experiment [3]; 8.06 µM in experiment [4]; 5.21 µM in [5]; 3.26 µM in experiment [6]. For the same molecule, the TGI in [7] was 12.6 µM; in [8], 7.28 µM; in experiment [9], 8.16 µM; in [10], 3.69 µM.

Consider `Nc1nc(N)c2c(n1)NC(c1ccccc1)C1CCc3ccccc3C1=N2` (stereo not given), for which the GI50 in [1] is 3.66 µM; in experiment [2] it was 4.07 µM; in [3] it was 2.13 µM; in [4] it was 3.25 µM; in experiment [5], 14.2 µM; in [6] it was 4.89 µM. The GI50 in experiment [7] was 6.96 µM; in experiment [8], 7.95 µM; in experiment [9], 3.01 µM; in experiment [10], 4.65 µM. Moreover, the TGI in experiment [1] was determined as 14.4 µM; in experiment [2] it was 14.9 µM; in [3], 17.9 µM; in [4], 13.5 µM; in experiment [5], 28 µM; in experiment [6] it was 19 µM. In addition, the TGI is 20 µM in experiment [7], 20.8 µM in [8], 14.8 µM in experiment [9] and 17.4 µM in experiment [10].

On to `C[C@]1(Cn2ccnn2)C(C(=O)O)N2C(=O)CC2S1(=O)=O` (stereo not given in full), for which the GI50 in [1], in [2], in experiment [3], in experiment [4], in experiment [5] and in experiment [6] was more than 100 µM throughout. Further, the GI50 in experiment [7], in [8], in experiment [9] and in experiment [10] was more than 100 µM each time. Further, the TGI in experiment [1], in experiment [2], in [3], in [4], in experiment [5] and in experiment [6] was more than 100 µM throughout. Besides, the TGI in experiment [7], in experiment [8], in experiment [9] and in [10] was more than 100 µM throughout.

As to `N#Cc1c(N)nc(N)nc1N[C@H](c1nc2c(F)ccc(Cl)c2c(=O)n1-c1cccnc1)C1CC1`, the GI50 was 4.53 µM in experiment [1]; 14.4 µM in experiment [2]; 10.9 µM in experiment [3]; 2.04 µM in experiment [4]; 2.72 µM in [5]; 0.32 µM in experiment [6]. Moreover, the GI50 was 12.3 µM in experiment [7], 0.171 µM in experiment [8], 1.92 µM in experiment [9] and 14.7 µM in experiment [10]. Also, the TGI was 25.8 µM in [1]; 34.5 µM in experiment [2]; more than 100 µM in experiment [3]; more than 100 µM in experiment [4]; 45.7 µM in experiment [5]; 3.46 µM in experiment [6]. Moreover, the TGI is more than 100 µM in [7], 6.9 µM in [8], 15.6 µM in experiment [9] and 69.2 µM in experiment [10].

As for `COC1C(OC(=O)/C=C/C=C/C=C/C=C\C(=O)O)CCC2(CO2)C1C1(C)OC1CC=C(C)C` (stereo not given), the GI50 in [1], in experiment [2], in [4], in [5], in experiment [6] and in experiment [7] was more than 200 µM throughout. In addition, the GI50 in experiment [8], in [9] and in experiment [10] was more than 200 µM throughout. The TGI in experiment [1], in experiment [2], in experiment [3], in experiment [4], in [5] and in [6] was more than 200 µM in each case. For the same molecule, the TGI in experiment [7], in [8], in [9] and in experiment [10] was more than 200 µM each time.

As to `Oc1cccc(/C=N/Nc2nnc(N/N=C/c3cccc(O)c3)c3ccccc23)c1`, the TGI in [1] was more than 100 µM; in experiment [2], more than 100 µM; in experiment [3], 57.3 µM; in experiment [4] it was more than 100 µM; in [5], more than 100 µM; in experiment [6] it was more than 100 µM. Also, the TGI in experiment [7] is more than 100 µM; in experiment [8], 50.5 µM; in [9] it was 50.9 µM; in [10], 29.6 µM.

As to `O=[n+]1c2ccccc2n([O-])c2cc(Cl)ccc21`, the GI50 in [1] was 3.6 µM; in [2] it was 5.77 µM; in [3] it was 7.76 µM; in experiment [4], 3.72 µM; in experiment [5], 15.7 µM; in experiment [6], 3.03 µM. Moreover, the GI50 in experiment [7] is 2.99 µM; in [8] it was 3.18 µM; in [9], 4.96 µM; in experiment [10], 2.71 µM. The TGI in experiment [1] turned out to be 13.5 µM; in experiment [2], 18.4 µM; in experiment [3], 20.8 µM; in [4], 16.1 µM; in [5], 33.5 µM; in experiment [6] it was 10 µM. Further, the TGI in experiment [7] came out at 10.7 µM; in experiment [8], 15 µM; in experiment [9], 18 µM; in experiment [10], 12 µM.

As for `C/C(=N\NC(=S)N1CCCCCCCCCCCC1)c1ccccn1`, the TGI in experiment [1] was found to be 1.04 µM; in experiment [2], 1.52 µM; in experiment [3], 1.08 µM; in experiment [4], 0.674 µM; in experiment [5], 2.2 µM; in [6] it was 0.536 µM. For the same molecule, the TGI in experiment [7] is 2.01 µM; in [8] it was 1 µM; in [9], 1.35 µM; in [10], 0.28 µM.

On to `COCCN1CCN(Cc2ccc(-c3n[nH]c4c3C(=O)c3c(NC(=O)NN5CCOCC5)cccc3-4)cc2)CC1`, for which the GI50 in experiment [1] was 0.0347 µM; in experiment [2], 0.0278 µM; in experiment [3], 0.0705 µM; in experiment [4], 0.00766 µM; in [5], 0.0212 µM; in [6], 0.0189 µM. The GI50 in experiment [7] is 0.0318 µM; in experiment [8], 0.0214 µM; in experiment [9] it was 0.0199 µM; in experiment [10], 0.0204 µM. For the same molecule, the TGI in experiment [1] is 0.299 µM; in [2], 0.572 µM; in [4], more than 5.52 µM; in [5], more than 4.7 µM; in [6], 0.0458 µM; in [8], 0.071 µM. The same molecule yielded a TGI in [9] of 0.422 µM.

Take `O=C(O)CCc1c2ccc(=O)c(O)c-2oc2c(O)c(O)ccc12`: the TGI was more than 100 µM in [1]; more than 100 µM in [2]; more than 100 µM in [3]; 29.3 µM in experiment [4]; more than 100 µM in experiment [5]; more than 100 µM in experiment [6]. Also, the TGI in [7], in experiment [8], in experiment [9] and in experiment [10] was more than 100 µM in each case.

As to `CCCCNC(=O)c1cc(NCc2cc(O)ccc2O)ccc1O`, the GI50 in experiment [1] was 21.5 µM; in [2], 14.4 µM; in [3] it was 11.8 µM; in experiment [4] it was 12.4 µM; in experiment [5], 17.4 µM; in experiment [6] it was 8.53 µM. The GI50 in experiment [7] was 10.3 µM; in [8], 18.5 µM; in experiment [9], 22.6 µM; in experiment [10], 22.6 µM. Besides, the TGI turned out to be 46.8 µM in experiment [1]; 57.7 µM in experiment [2]; 27.3 µM in experiment [3]; 39.8 µM in experiment [4]; 32 µM in experiment [5]; 21.4 µM in [6]. Also, the TGI in [7] is 23.6 µM; in [8], more than 100 µM; in [9] it was 37.6 µM; in experiment [10] it was 59.1 µM.

Turning to `CCCNC(=O)c1ccc(Cl)cc1Cl`, the GI50 in experiment [1], in experiment [2], in experiment [3], in [4], in [5] and in [6] was more than 100 µM in each case. Further, the GI50 in experiment [7], in experiment [8], in [9] and in experiment [10] was more than 100 µM throughout. The TGI in [1], in [2], in experiment [3], in [4], in [5] and in [6] was more than 100 µM in each case. Moreover, the TGI in experiment [7], in [8], in [9] and in experiment [10] was more than 100 µM each time.

In the case of `NC(N)=Nc1nc2ccc([N+](=O)[O-])cc2[nH]1`, the TGI in experiment [1], in [2], in experiment [3], in [4], in experiment [5] and in experiment [6] was more than 100 µM in each case. Besides, the TGI in [7], in experiment [8], in experiment [9] and in experiment [10] was more than 100 µM each time.

In the case of `Cc1ccc(C(SCC(N)C(=O)O)(c2ccccc2)c2ccccc2)cc1` (stereo not given), the GI50 is 0.365 µM in experiment [1]; 0.0983 µM in [2]; 0.0324 µM in [4]; 2.41 µM in [5]; 0.103 µM in experiment [6]; 0.0612 µM in experiment [7]. Further, the GI50 in experiment [8] was 0.128 µM; in experiment [9], 1.22 µM; in experiment [10] it was 0.042 µM. Further, the TGI in [1] was more than 100 µM; in experiment [2], 5.98 µM; in [3], more than 100 µM; in experiment [4], more than 79.1 µM; in experiment [5] it was more than 100 µM; in experiment [6], more than 100 µM. The TGI in [7] was 31.9 µM; in experiment [8], 58.3 µM; in experiment [9], more than 100 µM; in [10] it was more than 40.1 µM.

Turning to `CC(C)CC(Nc1c(O)ccc2ccccc12)C(=O)O` (stereo not given), the TGI was more than 100 µM in [1]; more than 100 µM in experiment [2]; 39.2 µM in experiment [3]; more than 100 µM in experiment [4]; more than 100 µM in experiment [5]; 35.8 µM in [6]. For the same molecule, the TGI in experiment [7] was 83.3 µM; in experiment [8], more than 100 µM; in experiment [9] it was more than 100 µM; in experiment [10], more than 100 µM.
